The values below are quoted from earlier work in patent US20170020837A1, “FUMARATE COMPOUNDS, PHARMACEUTICAL COMPOSITIONS THEREOF, AND METHODS OF USE” (priority 2015, published 2017).

For `COC(=O)/C=C/C(=O)OC` [DMF, dimethylfumarate], the aqueous solubility entry was “poor”.
